Consider 23 compounds from patent US9540359B2, “Dihydrooxazine or oxazepine derivatives having BACE1 inhibitory activity” (Shionogi & Co., Ltd., priority 2012, dated 2017).

Assay [1] addresses Recombinant human BACE1 (Homo sapiens (Human), UniProt P56817). Kind of assay: Assay of BACE1 inhibiting activity (HTRF, substrate peptide cleavage). In kind it is biochemical. The conditions noted are these: 30° C., 3.5 hours, pH 5.0. The protocol: 48.5 μL of substrate peptide solution (Biotin-[…]-Eu: X=ε-amino-n-capronic acid, Eu=Europium cryptate) was added to each well of 96-hole half-area plate (a black plate: Costar), and after addition of 0.5 μl of the compound of the present invention (DMSO solution) and 1 μl of Recombinant human BACE1 (R&D Systems), the reaction mixture was incubated at 30° C. for 3.5 hours. […] The final concentrations of the substrate peptide and Recombinant human BACE1 were adjusted to 18 nmol/L and 7.4 nmol/L, respectively, and the reaction was performed in sodium acetate buffer (50 mmol/L sodium acetate, pH 5.0, 0.008% Triton X-100). After the incubation for reaction, 50 μl of 8.0 μg/ml Streptavidin-XL665 (CIS bio international) dissolved in phosphate buffer (150 mmol/L K2HPO4-KH2PO4, pH 7.0, 0.008% Triton X-100, 0.8 mol/L KF) was added to each well and left stand at 30° C. for 45 minutes. After then, fluorescence intensity was measured (excitation wavelength: 320 nm, measuring wavelength: 620 nm and 665 nm) using Wallac 1420 multilabel counter (Perkin Elmer life sciences). Enzymatic activity was determined from counting ratio of each wavelength (10,000× Count 665/Count 620) and 50% inhibitory concentration against the enzymatic activity (IC50) was calculated.

Assay [2] relates to β-Amyloid (Aβ) production in neuroblastoma SH-SY5Y cells (SH/APPwt). In words: Measurement of β-amyloid (Aβ) production inhibitory effect in cell. The class given is cell-based. The conditions noted are these: Homo sapiens, amount needed to inhibit Aβ production by 50%, Amyloid β1-40 in culture supernatant, 24 hours. The protocol:
Neuroblastoma SH-SY5Y cells (SH/APPwt) with human wild-type β-APP excessively expressed therein were prepared at 8×10^5 cells/mL, and 150 μl portions thereof were inoculated into each well of a 96-well culture plate (Falcon). The cells were cultured for 2 hours at 37° C. in a 5% gaseous carbon dioxide incubator. Then, a solution which have been preliminarily prepared by adding and suspending the compound of the present invention (DMSO (dimethyl sulfoxide) solution) so as to be 2 μl/50 μl medium was added to the cell sap. Namely, the final DMSO concentration was 1%, and the amount of the cell culture was 200 μl. After the incubation was performed for 24 hours from the addition of the test compound, 100 μl of the culture supernatant was collected from each fraction. The amount of the Aβ in each fraction was measured. The Aβ amount was measured as follows. 10 μl of a homogeneous time resolved fluorescence (HTRF) measurement reagent (Amyloid β1-40 peptide; CIS bio international) and 10 μl of the culture supernatant were put into a 384-well half area microplate (black microplate, Costar) and mixed with each other, and then left standing overnight at 4° C. while the light was shielded. Then, the fluorescence intensity (excitation wavelength: 337 nm, measurement wavelength: 620 nm and 665 nm) was measured with a micro plate reader (Artemis K-101; FURUNO […]). […]

[3] abbreviates: bound stated for a list of compounds, read-out: IC50 values.
Setting [4] is: 50% inhibitory concentration against enzymatic activity, read-out: IC50 value.

Read-outs that look alike come from different tables or passages of the source. Where only a bound is given, the exact number is not on record here.

Recombinant human BACE1, sequence (P56817 46-501): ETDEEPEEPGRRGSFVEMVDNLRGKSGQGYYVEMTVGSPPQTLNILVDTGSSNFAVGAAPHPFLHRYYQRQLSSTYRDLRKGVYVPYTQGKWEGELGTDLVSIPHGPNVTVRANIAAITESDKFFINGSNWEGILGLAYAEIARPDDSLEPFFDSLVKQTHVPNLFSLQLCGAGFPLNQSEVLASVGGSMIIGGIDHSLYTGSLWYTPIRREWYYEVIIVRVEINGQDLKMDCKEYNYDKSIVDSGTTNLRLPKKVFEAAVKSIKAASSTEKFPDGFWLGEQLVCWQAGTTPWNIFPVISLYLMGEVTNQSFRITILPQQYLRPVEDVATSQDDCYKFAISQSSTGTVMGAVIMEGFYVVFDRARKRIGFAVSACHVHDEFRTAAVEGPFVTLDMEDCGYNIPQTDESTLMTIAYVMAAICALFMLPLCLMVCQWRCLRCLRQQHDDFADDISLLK

With `C[C@]1(c2cc(NC(=O)c3coc(CF)n3)ccc2F)N=C(N)O[C@H](CF)[C@@H]1F` [Compound I-85], the half-inhibitory concentration (IC50) in assay [1] (setting [3]) was at most 1000 nM.

For the compound `Cc1cc(C#N)cnc1C(=O)Nc1ccc(F)c([C@@]2(C)N=C(N)O[C@H](CF)[C@@H]2F)c1` [Compound I-26], the IC50 in assay [1] (setting [3]) was at most 1000 nM.

Take `CC1(C)C[C@@](C)(c2cc(NC(=O)c3ccc(C#N)cn3)ccc2F)N=C(N)O1` [Compound I-1]: the half-maximal inhibitory concentration (IC50) in assay [1] (setting [4]) is 94.2 nM.

With `C[C@]1(c2cc(NC(=O)c3ccc(C#N)cn3)ccc2F)N=C(N)OC2(COC2)[C@@H]1F` [Compound I-95], the IC50 in assay [1] (setting [4]) amounted to 20.7 nM.

Consider `CC12OC(N)=N[C@](CF)(c3cc(NC(=O)c4ccc(C#N)cn4)ccc3F)C1O2` (some centres unmarked) [Compound I-2], for which, in assay [1] (setting [4]), the IC50 was determined as 77.3 nM.

Consider `CO[C@H]1[C@@H](C(F)F)OC(N)=N[C@]1(C)c1cc(NC(=O)c2cnc(OCF)cn2)ccc1F` [Compound I-118], for which the IC50 in assay [1] (setting [3]) was at most 1000 nM.

For `N#Cc1ccc(C(=O)Nc2ccc(F)c([C@]34CCO[C@H]3COC(N)=N4)c2)nc1` [Compound I-108], the IC50 in assay [1] (setting [3]) is at most 1000 nM.

As for `C[C@H]1OC(N)=N[C@](CF)(c2cc(NC(=O)c3ccc(C#N)cn3)ccc2F)[C@H]1CF` [Compound I-100], the IC50 in assay [1] (setting [4]) was 113 nM.

`C#C[C@]1(c2cc(NC(=O)c3coc(C(F)F)n3)ccc2F)N=C(N)O[C@@H]2COC[C@@H]21` [Compound I-73]: the IC50 in assay [1] (setting [3]) was at most 1000 nM.

On to `NC1=N[C@@]2(c3cc(NC(=O)c4cnc(OCF)cn4)ccc3F)CCO[C@H]2[C@@H](CF)O1` [Compound I-111], for which, in assay [1] (setting [3]), the concentration for half-maximal inhibition (IC50) was at most 1000 nM.

With `C#C[C@]1(c2cc(NC(=O)c3ccc(C#N)cn3)ccc2F)N=C(N)O[C@@H]2C[C@@H]21` [Compound I-21], in assay [1] (setting [4]), the IC50 was 65.4 nM.

On to `Cc1cc(C#N)cnc1C(=O)Nc1ccc(F)c([C@]2(C(F)F)CCOC(N)=N2)c1` [Compound I-4], for which the half-maximal inhibitory concentration (IC50) in assay [1] (setting [4]) is 90.2 nM.

As for `C[C@]1(c2cc(NC(=O)c3coc(C(F)F)n3)ccc2F)N=C(N)O[C@H](CF)[C@@H]1F` [Compound I-86], the IC50 in assay [1] (setting [4]) amounted to 32.9 nM.

In assay [2], `N#Cc1ccc(C(=O)Nc2ccc(F)c([C@]3(C(F)(F)F)CCOC(N)=N3)c2)nc1` [Compound I-38] displayed a concentration for half-maximal inhibition (IC50) of 509 nM.

In the case of `C#C[C@@]1(c2cc(NC(=O)c3ccc(C#N)cn3)ccc2F)CCOC(N)=N1` [Compound I-14], the half-inhibitory concentration (IC50) in assay [1] (setting [4]) was determined as 96.8 nM.

`C#C[C@]1(c2cc(NC(=O)c3cnc(OCF)cn3)ccc2F)N=C(N)O[C@@H]2COC[C@@H]21` [Compound I-72]: the IC50 in assay [1] (setting [4]) turned out to be 13.6 nM.

As to `NC1=N[C@@](c2cc(NC(=O)c3cnc(OCF)cn3)ccc2F)(C(F)F)CCCO1` [Compound I-47], the half-inhibitory concentration (IC50) in assay [1] (setting [3]) is at most 1000 nM.

As to `C[C@@]1(c2cc(NC(=O)c3ccc(C#N)cn3)ccc2F)CC2(COC2)OC(N)=N1` [Compound I-56], the half-maximal inhibitory concentration (IC50) in assay [1] (setting [4]) worked out at 25 nM.

For `C[C@@]1(c2cc(NC(=O)c3ccc(C#N)cn3)ccc2F)CCCOC(N)=N1` [Compound I-13], the IC50 in assay [1] (setting [4]) was 153 nM.

On to `N#Cc1ccc(C(=O)Nc2ccc(F)c([C@]34CCO[C@H]3[C@@H](CF)OC(N)=N4)c2)nc1` [Compound I-110], for which, in assay [1] (setting [3]), the IC50 was at most 1000 nM.

Turning to `CO[C@H]1[C@@H](C(F)F)OC(N)=N[C@]1(C)c1cc(NC(=O)c2ccc(F)cn2)ccc1F` [Compound I-119], the half-inhibitory concentration (IC50) in assay [1] (setting [3]) was at most 1000 nM.

For the compound `COC[C@@H]1C[C@@](CF)(c2cc(NC(=O)c3ccc(C#N)cn3)ccc2F)N=C(N)O1` [Compound I-37], the IC50 in assay [1] (setting [3]) was at most 1000 nM.

Consider `CO[C@H]1[C@@H](C(F)F)OC(N)=N[C@]1(C)c1cc(NC(=O)c2ccc(C#N)cn2)ccc1F` [Compound I-116], for which, in assay [1] (setting [3]), the IC50 is at most 1000 nM.
